DBAASP
≈ marks a conversion by molar mass, not a printed value. One block for each compound: values may come before it.

How the values were obtained:
Test in all cases: ≥ marks a high value that may be exact or a test limit, other limits are often not marked, values filed in µg/mL are converted to µM
[1] = system: Mycobacterium tuberculosis H37Rv
[2] = system: Acinetobacter baumannii Ab5753
[3] = system: Candida albicans ATCC 90028
[4] = system: Escherichia coli ATCC 25922
[5] = system: Escherichia coli Ec513
[6] = system: Pseudomonas aeruginosa Pa1409
[7] = system: Staphylococcus aureus NCTC 8325
[8] = system: Staphylococcus aureus Sa1390
[9] = system: Escherichia coli K88
[10] = system: Escherichia coli O157:H7 CICC 21530
[11] = system: Lacticaseibacillus rhamnosus 1.0911
[12] = system: Lacticaseibacillus rhamnosus 1.0936
[13] = system: Lacticaseibacillus rhamnosus 1.9021
[14] = system: Lacticaseibacillus rhamnosus 8014
[15] = system: Pseudomonas aeruginosa ATCC 27853
[16] = system: Pseudomonas aeruginosa PAO1
[17] = system: Salmonella enterica subsp. enterica serovar Choleraesuis CVCC 503
[18] = system: Salmonella enterica subsp. enterica serovar Pullorum C79-13
[19] = system: Salmonella enterica subsp. enterica serovar Typhimurium ATCC 14028
[20] = system: Staphylococcus aureus ATCC 29213
[21] = system: Staphylococcus aureus ATCC 43300
[22] = system: Staphylococcus epidermidis ATCC 12228
[23] = system: Streptococcus agalactiae BNCC 185941
[24] = system: Escherichia coli INV-a
[25] = system: Lactococcus lactis MG1363
[26] = system: Bacillus cereus ATCC 11778
[27] = system: Bacillus thuringiensis ATCC 10792
[28] = system: Cryptococcus gattii ATCC 56990
[29] = system: Cryptococcus neoformans ATCC 90112
[30] = system: Enterococcus faecium CCT 5079
[31] = system: Enterococcus hirae ATCC 10541
[32] = system: Escherichia coli ATCC 11775
[33] = system: Escherichia coli CCT 1457
[34] = system: Micrococcus luteus ATCC 4698
[35] = system: Paracoccidioides brasiliensis
[36] = system: Paracoccidioides lutzii ATCC MYA-826
[37] = system: Pseudomonas aeruginosa ATCC 13388
[38] = system: Pseudomonas aeruginosa ATCC 15422
[39] = system: Salmonella enterica subsp. enterica serovar Choleraesuis ATCC 10708
[40] = system: Staphylococcus aureus ATCC 25923
[41] = system: Staphylococcus aureus CCT 2580
[42] = system: Staphylococcus aureus CCT 6538
[43] = system: Streptococcus mutans AU159
[44] = system: Streptococcus pneumoniae ATCC 11733

MIC [1]: 18.1 µM (≈ 37.5 µg/mL)
SMILES: CC(C)C[C@H](NC(=O)[C@H](C)N)C(=O)N[C@@H](CCCCN)C(=O)N[C@@H](CCCCN)C(=O)N[C@@H](CC(C)C)C(=O)N[C@H](C(=O)N[C@@H](CCCN=C(N)N)C(=O)N[C@@H](Cc1c[nH]c2ccccc12)C(=O)N[C@@H](Cc1c[nH]c2ccccc12)C(=O)N[C@@H](CCCCN)C(=O)N[C@@H](CCCN=C(N)N)C(=O)N[C@@H](Cc1c[nH]c2ccccc12)C(=O)N[C@@H](Cc1c[nH]c2ccccc12)C(=O)N[C@@H](CO)C(=O)N[C@@H](CCCCN)C(=O)O)C(C)C [ALKKLVRWWKRWWSK]

MIC [2]: ≥ 60.6 µM
MIC [3]: 14 µM (≈ 29.5 µg/mL)
MIC [4]: 4 µM (≈ 8.44 µg/mL)
MIC [5]: ≥ 60.6 µM
MIC [6]: ≥ 60.6 µM
MIC [7]: 17 µM (≈ 35.9 µg/mL)
MIC [8]: 30.3 µM (≈ 63.9 µg/mL)
SMILES: CC[C@H](C)[C@H](NC(=O)[C@H](CC(C)C)NC(=O)[C@H](C)NC(=O)[C@@H]1CCCN1C(=O)[C@H](Cc1ccccc1)NC(=O)[C@H](C)NC(=O)[C@H](CCCCN)NC(=O)[C@H](CCSC)NC(=O)[C@H](CC(C)C)NC(=O)CNC(=O)CNC(=O)[C@H](CC(C)C)NC(=O)[C@@H](N)Cc1ccccc1)C(=O)N[C@H]1CSSC[C@@H](C(=O)O)NC(=O)[C@H](CCCCN)NC(=O)[C@H](CCCCN)NC(=O)[C@H]([C@@H](C)O)NC(=O)[C@H](C(C)C)NC(=O)[C@H](C)NC1=O [FLGGLMKAFPALICAVTKKC]

MIC [9]: 16 µM (≈ 20.5 µg/mL)
MIC [10]: ≥ 64 µM
MIC [11]: ≥ 128 µM
MIC [12]: ≥ 128 µM
MIC [13]: ≥ 128 µM
MIC [14]: ≥ 128 µM
MIC [15]: > 128 µM
MIC [16]: 64 µM (≈ 82.1 µg/mL)
MIC [18]: 16 µM (≈ 20.5 µg/mL)
MIC [19]: > 128 µM
MIC [20]: > 128 µM
MIC [21]: > 128 µM
MIC [22]: > 128 µM
MIC [23]: ≥ 128 µM
SMILES: CC(C)C[C@H](NC(=O)[C@H](CCCCN)NC(=O)[C@H](CCCCN)NC(=O)CN)C(=O)N[C@@H](CC(C)C)C(=O)N[C@@H](Cc1c[nH]c2ccccc12)C(=O)N[C@@H](CC(C)C)C(=O)N[C@@H](CC(C)C)C(=O)N[C@@H](CCCCN)C(=O)N[C@@H](CCCCN)C(=O)NCC(N)=O [GKKLLWLLKKG]
MIC [17]: ≥ 64 µM

MIC [24]: ≥ 33 µM
MIC [25]: 21 µM (≈ 31.8 µg/mL)
SMILES: CC[C@H](C)[C@H](N)C(=O)N[C@@H](CC(N)=O)C(=O)N[C@@H](Cc1c[nH]c2ccccc12)C(=O)N[C@@H](CCCCN)C(=O)NCC(=O)N[C@H](C(=O)N[C@@H](C)C(=O)N[C@@H](C)C(=O)N[C@@H](CCSC)C(=O)N[C@@H](C)C(=O)N[C@@H](CCCCN)C(=O)N[C@@H](CCCCN)C(=O)N[C@@H](CC(C)C)C(=O)N[C@@H](C)C(N)=O)[C@@H](C)CC [INWKGIAAMAKKLA]

MIC [26]: 18.9 µM (≈ 31 µg/mL)
MIC [27]: 18.9 µM (≈ 31 µg/mL)
MIC [3]: 9.51 µM (≈ 15.6 µg/mL)
MIC [28]: 9.5 µM (≈ 15.6 µg/mL)
MIC [29]: 19 µM (≈ 31.2 µg/mL)
MIC [30]: 0.609 µM (≈ 0.999 µg/mL)
MIC [31]: 9.74 µM (≈ 16 µg/mL)
MIC [32]: 9.74 µM (≈ 16 µg/mL)
MIC [4]: 18.9 µM (≈ 31 µg/mL)
MIC [33]: 2.44 µM (≈ 4 µg/mL)
MIC [34]: 1.22 µM (≈ 2 µg/mL)
MIC [35]: 4.75 µM (≈ 7.8 µg/mL)
MIC [36]: 9.5 µM (≈ 15.6 µg/mL)
MIC [37]: 4.87 µM (≈ 8 µg/mL)
MIC [38]: 9.74 µM (≈ 16 µg/mL)
MIC [19]: 4.87 µM (≈ 8 µg/mL)
MIC [40]: 2.44 µM (≈ 4 µg/mL)
MIC [41]: 2.44 µM (≈ 4 µg/mL)
MIC [42]: 4.87 µM (≈ 8 µg/mL)
MIC [22]: 1.22 µM (≈ 2 µg/mL)
MIC [43]: 4.87 µM (≈ 8 µg/mL)
MIC [44]: 0.609 µM (≈ 0.999 µg/mL)
SMILES: CC[C@H](C)[C@H](N)C(=O)N[C@@H](CC(N)=O)C(=O)N[C@@H](Cc1c[nH]c2ccccc12)C(=O)N[C@@H](CC(C)C)C(=O)N[C@@H](CCCCN)C(=O)N[C@H](C(=O)N[C@@H](C)C(=O)N[C@@H](CCCCN)C(=O)N[C@@H](CCCCN)C(=O)N[C@H](C(=O)N[C@@H](CCCCN)C(=O)NCC(=O)N[C@@H](CCSC)C(=O)N[C@@H](CC(C)C)C(N)=O)C(C)C)[C@@H](C)CC [INWLKIAKKVKGML]
MIC [39]: 18.9 µM (≈ 31 µg/mL)
